Results published in ChEMBL document CHEMBL4049436, “Inhibitors of 15-Prostaglandin Dehydrogenase To Potentiate Tissue Repair” (J Med Chem, 2017).

How the values were obtained:
[1] = (§1) Half life in mouse liver S9 fractions at 2 uM in presence of NADPH by LC-MS/MS analysis; assay type: ADME, tissue-based; conditions: liver S9 fraction
[2] = (§2) Cmax in CD1 mouse at 10 mg/kg, ip measured at 10 to 1440 mins post dose by LC-MS/MS analysis; assay type: ADME, organism-based; parameters: dose 10 mg/kg, route intraperitoneal; conditions: CD1, mouse, in vivo
[3] = (§3) AUC in CD1 mouse at 10 mg/kg, ip measured at 10 to 1440 mins post dose by LC-MS/MS analysis; assay type: ADME, organism-based; conditions: CD1, mouse, in vivo
Liver = assay: as §1; assay type: ADME, tissue-based; conditions: s9, 2 µM
Mus musculus [4] = assay: as §2; assay type: ADME, organism-based; parameters: dose 10 mg/kg, route intraperitoneal; conditions: mouse, in vivo
Mus musculus [5] = assay: as §3; assay type: ADME, organism-based; conditions: mouse, in vivo
[6] = Plasma concentration in CD1 mouse at 10 mg/kg, ip measured at 3 hrs post dose by LC-MS/MS analysis; assay type: ADME, organism-based
[7] = Half life in human liver S9 fraction at 2 uM by LC-MS/MS analysis; assay type: ADME, tissue-based
[8] = Plasma concentration in […] mouse at […], ip measured up to 3 hrs post dose by LC-MS/MS analysis; assay type: ADME, organism-based

A half-life at 2 µM [1] of 0.217 h, a Cmax [2] of 1600 nM and an AUC [3] of 717 ng·h/mL were found for `CCCC[S@@+]([O-])c1sc2nc(-c3cccs3)cc(-c3ccccc3)c2c1N` in this work.

A t1/2 (Liver) of 0.217 h was found for `CCCC[S+]([O-])c1sc2nc(-c3nccs3)cc(-c3ccc(CO)cc3)c2c1N` (stereo not drawn) in this work.

A t1/2 (Liver) of 1.38 h, a Cmax (Mus musculus [4]) of 13000 nM and an AUC (Mus musculus [5]) of 959 µg·min/mL were found for `CCCC[S+]([O-])c1sc2nc(-c3nccs3)cc(-c3ccc(OCCO)cc3)c2c1N` (stereo not drawn) in this work. It also gave a concentration at 3 h [6] of 4200 nM.

A t1/2 (Liver) greater than 4 h, a Cmax (Mus musculus [4]) of 6200 nM and an AUC (Mus musculus [5]) of 116 µg·min/mL were found for `COCC[S+]([O-])c1sc2nc(-c3nccs3)cc(-c3cnc(C)n3C)c2c1N` (stereo not drawn) in this work. The concentration at 3 h [6] was 60 nM.

A t1/2 (Liver) of 0.033 h was found for `CCCC[S+]([O-])c1sc2nc(-c3nccs3)cc(-c3ccc(COC(=O)CN(C)C)cc3)c2c1N` (stereo not drawn) in this work.

A half-life at 2 µM [1] of 0.583 h, a half-life at 2 µM [7] greater than 4 h and a Cmax [2] of 3100 nM were found for `CCCC[S@@+]([O-])c1sc2nc(-c3nccs3)cc(-c3cnc(C)n3C)c2c1N` in this work. It also gave an AUC [3] of 783 ng·h/mL, a concentration at 3 h [6] of less than 10 nM and a concentration at 3 h [8] of less than 10 nM.

A half-life at 2 µM [1] of 4.82 h and a half-life at 2 µM [7] of 3.73 h were found for `CCCC[S@+]([O-])c1sc2nc(-c3nccs3)cc(-c3cnc(C)n3C)c2c1N` in this work.

A t1/2 (Liver) greater than 4 h was found for `COCCC[S+]([O-])c1sc2nc(-c3nccs3)cc(-c3cnc(C)n3C)c2c1N` (stereo not drawn) in this work.

A half-life at 2 µM [1] of 1.38 h, a Cmax [2] of 1500 nM and an AUC [3] of 1380 ng·h/mL were found for `CCCC[S+]([O-])c1sc2nc(-c3cccs3)cc(-c3ccccc3)c2c1N` (stereo not drawn) in this work.

A Cmax (Mus musculus [4]) of 10600 nM, an AUC (Mus musculus [5]) of 172 µg·min/mL and a concentration at 3 h [6] of 60 nM were found for `CCCC[S+]([O-])c1sc2nc(-c3nccs3)nc(-c3ccccc3)c2c1N` (racemic) in this work.
